Patent US4684620A, “Cyclic polypeptides having mu-receptor specificity” (Gibson-Stephens Neuropharmaceuticals, Inc., priority 1984, dated 1987)
pIC50: −log10 of the molar value. Positions of bridges follow the written chain, without caps; N, C: chain ends. Non-standard residues stand in square brackets, D forms with d. Residues, ends and D or L forms follow the SMILES beside them. Asu = N[C@@H](CCCCCC(=O)O)C(=O)O; dPhg = N[C@@H](C(=O)O)c1ccccc1; Pen = CC(C)(S)[C@H](N)C(=O)O

Assays:
[1] = Partition coefficient, octanol-water; assay type: physicochemical; settings: read-out: Partition Coefficient, Octanol-Water, log P
[2] = molecular target: T1, mu opioid receptor (Rattus norvegicus, UniProt P33535); experiment: [3H]naloxone receptor binding to rat brain homogenates; settings: for pIC50: 1 nM [3H]naloxone
T1 construct: Adult Sprague-Dawly rats (150-200g) were killed by decapitation; The brain was rapidly removed and homogenized; from tissue; host or cells: rat brain membranes (Sprague-Dawley)
T1 sequence (P33535 whole entry): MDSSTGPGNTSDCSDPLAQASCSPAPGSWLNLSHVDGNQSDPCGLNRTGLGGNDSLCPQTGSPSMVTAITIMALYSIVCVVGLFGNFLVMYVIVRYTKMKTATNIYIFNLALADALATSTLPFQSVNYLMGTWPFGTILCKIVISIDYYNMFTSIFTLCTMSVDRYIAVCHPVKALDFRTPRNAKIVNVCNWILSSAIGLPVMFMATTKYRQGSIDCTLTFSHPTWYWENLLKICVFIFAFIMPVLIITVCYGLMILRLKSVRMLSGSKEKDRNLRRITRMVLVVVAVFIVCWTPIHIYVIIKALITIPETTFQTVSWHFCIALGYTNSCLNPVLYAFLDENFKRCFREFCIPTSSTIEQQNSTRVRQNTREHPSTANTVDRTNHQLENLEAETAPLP
Procedure: (§1) Adult Sprague-Dawly rats (150-200g) were killed by decapitation. The brain was rapidly removed and homogenized (10% wt/vol in 0.32 M sucrose in a glass homogenizer with a motor driven teflon pestle. The homogenate was then centrifuged at 43,000×g for 10 min and the resulting pellet was resuspended in 50 mM Trisma buffer (pH 7.4 at 25° C.) containing 5 mM MgCl2, 2 mg/ml BSA and 20 mg/ml of bacitracin, using a Polytron homogenizer (15 sec, setting 5). The centrifugation and resuspension step was repeated once.
(§2) For all the inhibition studies, rat brain plasma membranes (100 μl ) were incubated at 25° C. for 60 min in a total of 1.0 ml of 50 mM Trisma buffer containing 220,000 dpm ^125 I-CGP 23,996. See Czernik, A. J. and Petrack, G., J. Biol. Chem. 258,5525-5530 (1983) which is herein specifically incorporated by reference. 1 nM [^3 H-]naloxone (42.3 Ci/mmol, New England Nuclear) or 1 nM [^3 H]DADLE ([D-Ala^2, D-Ala^5 ]enkephalin), [^3 H-3'5'-Tyr]DADLE, 43 Ci/mmol, New England Nuclear, and at least nine concentrations of our synthetic analogues. All incubations were done in duplicate and each compound was tested at least five times. The concentration of test compounds was determined by quantitative amino acid analysis or from published molar extinction coefficients. […] The data were analyzed using nonlinear least squares regression analysis.

[3] = molecular target: T2, δ-opiate receptors (Rattus norvegicus, UniProt P33533); experiment: [3H]DADLE receptor binding to rat brain homogenates; settings: for pIC50: 1 nM [3H]DADLE
T2 construct: Adult Sprague-Dawly rats (150-200g) were killed by decapitation; The brain was rapidly removed and homogenized; from tissue; host or cells: rat brain membranes (Sprague-Dawley)
T2 sequence (P33533 whole entry): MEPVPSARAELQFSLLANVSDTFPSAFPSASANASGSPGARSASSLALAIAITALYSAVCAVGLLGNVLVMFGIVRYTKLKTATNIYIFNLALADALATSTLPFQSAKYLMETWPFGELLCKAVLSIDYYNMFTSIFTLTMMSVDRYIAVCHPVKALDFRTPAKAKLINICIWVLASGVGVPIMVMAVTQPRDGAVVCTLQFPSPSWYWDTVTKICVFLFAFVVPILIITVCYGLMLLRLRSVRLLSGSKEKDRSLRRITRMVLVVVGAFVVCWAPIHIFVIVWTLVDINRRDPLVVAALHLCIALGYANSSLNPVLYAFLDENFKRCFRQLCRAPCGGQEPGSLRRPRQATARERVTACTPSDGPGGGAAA
Procedure: as §1, §2

[4] = system: mu-type opiate receptors; experiment: Guinea pig ileum (GPI) test, electrically stimulated contractions, antagonism of morphiceptin; settings: morphiceptin alone
Procedure: (§3) The compounds of the present invention were tested for their ability to inhibit electrically stimulated muscle contractions in the guinea pig ileum (GPI) assay and in the mouse vas deferens (MVD) assay.
The tests in the guinea pig ileum were conducted as follows: strips of longitudinal muscle with adhering myenteric plexus were prepared from nonterminal ilea of guinea pigs and attached to a force transducer in a 60 ml isolated organ bath. Contractions were elicited by electrical stimulation with a Grass S44D stimulator.

[5] = molecular target: T3, delta-type opiate receptors (Mus musculus, UniProt P32300); experiment: Mouse vas deferens (MVD) test, electrically stimulated contractions, antagonism of DPDPE
T3 construct: from tissue; host or cells: mouse vas deferens
T3 sequence (P32300 whole entry): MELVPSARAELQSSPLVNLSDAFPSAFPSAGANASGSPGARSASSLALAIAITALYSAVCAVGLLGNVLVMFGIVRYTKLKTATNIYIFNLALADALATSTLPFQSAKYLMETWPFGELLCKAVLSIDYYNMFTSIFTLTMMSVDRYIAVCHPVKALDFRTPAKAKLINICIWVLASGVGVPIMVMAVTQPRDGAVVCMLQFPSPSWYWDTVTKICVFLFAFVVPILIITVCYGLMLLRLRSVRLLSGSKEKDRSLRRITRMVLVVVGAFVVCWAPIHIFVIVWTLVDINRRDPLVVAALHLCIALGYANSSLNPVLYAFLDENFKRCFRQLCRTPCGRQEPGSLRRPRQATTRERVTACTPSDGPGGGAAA
Procedure: as §3
The mouse vasa deferentia tests were conducted as follows: vas deferens of male mice were placed in a 60 ml tissue bath and attached to a force transducer. Contractions were induced by electrical stimulation. […] Percent inhibition was calculated.

Compound	logP [1]	pIC50 [2]	pIC50 [3]	further results
C[C@@H](O)[C@H](NC(=O)[C@H]1NC(=O)[C@H]([C@@H](C)O)NC(=O)[C@H](CCCCN)NC(=O)[C@@H](Cc2c[nH]c3ccccc23)NC(=O)[C@H](Cc2ccccc2)NC(=O)[C@@H](NC(=O)[C@H](N)Cc2ccccc2)CSSC1(C)C)C(N)=O [VII]	0.36			
C[C@@H](O)[C@H](NC(=O)[C@H]1NC(=O)[C@H]([C@@H](C)O)NC(=O)[C@H](CCCCN)NC(=O)[C@@H](Cc2c[nH]c3ccccc23)NC(=O)[C@H](Cc2ccccc2)NC(=O)[C@@H](NC(=O)[C@H](N)Cc2ccccc2)CSSC1(C)C)C(=O)O [III]	-0.71			
C[C@@H](O)[C@H](NC(=O)[C@@H]1CSSC[C@H](NC(=O)[C@H](N)Cc2ccccc2)C(=O)N[C@@H](Cc2ccccc2)C(=O)N[C@H](Cc2c[nH]c3ccccc23)C(=O)N[C@@H](CCCCN)C(=O)N[C@@H]([C@@H](C)O)C(=O)N1)C(=O)O [drawing 31]		5.59	5.50	
NC(=O)[C@@H]1CCCN1C(=O)[C@H](Cc1ccccc1)NC(=O)[C@@H]1CCCN1C(=O)[C@@H](N)Cc1ccc(O)cc1 [Morphiceptin] (H-YPFP-NH2)				Percent inhibition of contractions ([4]; 300 nM): 28 ± 3%; Percent inhibition of contractions ([4]; 1000 nM): 58 ± 3%; Percent inhibition of contractions ([4]; 3000 nM): 73 ± 4%; Percent inhibition of contractions ([4]; 10000 nM): 73 ± 3%
C[C@@H](O)[C@H](NC(=O)[C@@H]1CSSC(C)(C)[C@H](NC(=O)[C@H](N)Cc2ccccc2)C(=O)N[C@@H](Cc2ccccc2)C(=O)N[C@H](Cc2c[nH]c3ccccc23)C(=O)N[C@@H](CCCCN)C(=O)N[C@@H]([C@@H](C)O)C(=O)N1)C(=O)O [IV]	-0.22			
C[C@@H](O)[C@H](NC(=O)[C@@H]1CSSC(C)(C)[C@H](NC(=O)[C@H](N)Cc2ccccc2)C(=O)N[C@@H](Cc2ccc(O)cc2)C(=O)N[C@H](Cc2c[nH]c3ccccc23)C(=O)N[C@@H](CCCCN)C(=O)N[C@@H]([C@@H](C)O)C(=O)N1)C(=O)O		6.33	5.59	
C[C@@H](O)[C@H](NC(=O)[C@@H]1CSSC(C)(C)[C@H](NC(=O)[C@H](N)Cc2ccccc2)C(=O)N[C@@H](Cc2ccccc2)C(=O)N[C@H](Cc2c[nH]c3ccccc23)C(=O)N[C@@H](CCCCN)C(=O)N[C@@H]([C@@H](C)O)C(=O)N1)C(=O)O [drawing 32]		4.21	4.42	
CC(=O)N[C@@H](Cc1ccccc1)C(=O)N[C@H](Cc1c[nH]c2ccccc12)C(=O)N[C@@H](CCCCN)C(=O)N[C@H](C(=O)O)[C@@H](C)O [AcPhe --D-TrpLysThr, reference compound] (Ac-F[dW]KT-OH)		4.29	5.23	
C[C@@H](O)[C@H](NC(=O)[C@@H]1CSSC[C@H](NC(=O)[C@H](N)Cc2ccccc2)C(=O)N[C@@H](Cc2ccccc2)C(=O)N[C@H](Cc2c[nH]c3ccccc23)C(=O)N[C@@H](CCCCN)C(=O)N[C@@H]([C@@H](C)O)C(=O)N1)C(=O)O [II]	-0.77			
C[C@@H](O)[C@@H]1NC(=O)[C@H](Cc2ccc(O)cc2)NC(=O)[C@H]([C@@H](C)O)NC(=O)[C@H](CCCCN)NC(=O)[C@H](Cc2c[nH]c3ccccc23)NC(=O)[C@H](Cc2ccccc2)NC(=O)[C@H](Cc2ccccc2)NC(=O)[C@H](CC(N)=O)NC(=O)[C@H](CCCCN)NC(=O)CCCCC[C@@H](C(=O)O)NC(=O)[C@H](CO)NC1=O [CGP 23,996, des-Ala^1,Gly^2-desamino-Cys3-[Tyr^11]-dicarba^3,14-somatostatin, reference compound] (KNFFWKTYTS[Asu]-OH; lactam N-11)		< 4.00	< 4.00	
C[C@@H](O)[C@H](NC(=O)[C@H]1NC(=O)[C@H]([C@@H](C)O)NC(=O)[C@H](CCCCN)NC(=O)[C@@H](Cc2c[nH]c3ccccc23)NC(=O)[C@H](Cc2ccccc2)NC(=O)[C@@H](NC(=O)[C@H](N)Cc2ccccc2)C(C)(C)SSC1(C)C)C(=O)O [Example V]	0			
C[C@H](N)C(=O)NCC(=O)N[C@H]1CSSC[C@@H](C(=O)O)NC(=O)[C@H](CO)NC(=O)[C@H]([C@@H](C)O)NC(=O)[C@H](Cc2ccccc2)NC(=O)[C@H]([C@@H](C)O)NC(=O)[C@H](CCCCN)NC(=O)[C@H](Cc2c[nH]c3ccccc23)NC(=O)[C@H](Cc2ccccc2)NC(=O)[C@H](Cc2ccccc2)NC(=O)[C@H](CC(N)=O)NC(=O)[C@H](CCCCN)NC1=O [SOMATOSTATIN, somatostatin, reference compound]				[3H]Naloxone nH [2]: 1.02; [3H]DADLE nH [3]: 1.09
C[C@@H](O)[C@H](NC(=O)[C@H]1NC(=O)[C@H]([C@@H](C)O)NC(=O)[C@H](CCCCN)NC(=O)[C@@H](Cc2c[nH]c3ccccc23)NC(=O)[C@H](Cc2ccc(O)cc2)NC(=O)[C@@H](NC(=O)[C@H](N)Cc2ccccc2)CSSC1(C)C)C(N)=O [drawing 41]				Percent inhibition of contractions ([5]; DPDPE 1 nM plus 1000 nM analog): 13 ± 3%; Percent inhibition of contractions ([5]; DPDPE 3 nM plus 1000 nM analog): 28 ± 4%; Percent inhibition of contractions ([5]; DPDPE 10 nM plus 1000 nM analog): 48 ± 8%; Percent inhibition of contractions ([5]; DPDPE 30 nM plus 1000 nM analog): 73 ± 9%; Percent inhibition of contractions ([5]; DPDPE 100 nM plus 1000 nM analog): 91 ± 5%; Percent inhibition of contractions ([5]; DPDPE 300 nM plus 1000 nM analog): 97 ± 1%
C[C@@H](O)[C@H](NC(=O)[C@H]1NC(=O)[C@H]([C@@H](C)O)NC(=O)[C@H](CCCCN)NC(=O)[C@@H](Cc2c[nH]c3ccccc23)NC(=O)[C@H](Cc2ccc(O)cc2)NC(=O)[C@@H](NC(=O)[C@H](N)Cc2ccccc2)CSSC1(C)C)C(=O)O [Example 1]	0.7			
C[C@@H](O)[C@H](NC(=O)[C@H]1NC(=O)[C@H]([C@@H](C)O)NC(=O)[C@H](CCCCN)NC(=O)[C@@H](Cc2c[nH]c3ccccc23)NC(=O)[C@H](Cc2ccccc2)NC(=O)[C@@H](NC(=O)[C@H](N)Cc2ccccc2)CSSC1(C)C)C(=O)O [drawing 27]		6.03	5.27	
C[C@@H](O)[C@H](NC(=O)[C@H]1NC(=O)[C@H]([C@@H](C)O)NC(=O)[C@H](CCCCN)NC(=O)[C@@H](Cc2c[nH]c3ccccc23)NC(=O)[C@H](Cc2ccc(O)cc2)NC(=O)[C@@H](NC(=O)[C@H](N)Cc2ccccc2)CSSC1(C)C)C(N)=O [drawing 24]		8.46	6.02	
C[C@@H](O)[C@H](NC(=O)[C@H]1NC(=O)[C@H]([C@@H](C)O)NC(=O)[C@H](CCCCN)NC(=O)[C@@H](Cc2c[nH]c3ccccc23)NC(=O)[C@H](Cc2ccccc2)NC(=O)[C@@H](NC(=O)[C@H](N)Cc2ccccc2)CSSC1(C)C)C(N)=O [drawing 25]		8.00	5.96	
C[C@@H](O)[C@H](NC(=O)[C@@H]1CSSC(C)(C)[C@H](NC(=O)[C@H](N)c2ccccc2)C(=O)N[C@@H](Cc2ccccc2)C(=O)N[C@H](Cc2c[nH]c3ccccc23)C(=O)N[C@@H](CCCCN)C(=O)N[C@@H]([C@@H](C)O)C(=O)N1)C(=O)O [VIII] (H-[dPhg][Pen]F[dW]KTCT-OH; disulfide 2-7)	-0.57			
C[C@@H](O)[C@H](NC(=O)[C@H]1NC(=O)[C@H]([C@@H](C)O)NC(=O)[C@H](CCCCN)NC(=O)[C@@H](Cc2c[nH]c3ccccc23)NC(=O)[C@H](Cc2ccc(O)cc2)NC(=O)[C@@H](NC(=O)[C@H](N)Cc2ccccc2)CSSC1(C)C)C(=O)O [drawing 26]		6.53	5.42	
C[C@@H](O)[C@H](NC(=O)[C@H]1NC(=O)[C@H]([C@@H](C)O)NC(=O)[C@H](CCCCN)NC(=O)[C@@H](Cc2c[nH]c3ccccc23)NC(=O)[C@H](Cc2ccc(O)cc2)NC(=O)[C@@H](NC(=O)[C@H](N)Cc2ccccc2)CSSC1(C)C)C(N)=O [Example VI]	-0.2			
C[C@@H](O)[C@H](NC(=O)[C@H]1NC(=O)[C@H]([C@@H](C)O)NC(=O)[C@H](CCCCN)NC(=O)[C@@H](Cc2c[nH]c3ccccc23)NC(=O)[C@H](Cc2ccccc2)NC(=O)[C@@H](NC(=O)[C@H](N)Cc2ccccc2)C(C)(C)SSC1(C)C)C(=O)O [drawing 30]		5.08	4.96	
C[C@@H](O)[C@H](NC(=O)[C@@H]1CSSC(C)(C)[C@H](NC(=O)[C@H](N)c2ccccc2)C(=O)N[C@@H](Cc2ccccc2)C(=O)N[C@H](Cc2c[nH]c3ccccc23)C(=O)N[C@@H](CCCCN)C(=O)N[C@@H]([C@@H](C)O)C(=O)N1)C(=O)O [drawing 28] (H-[dPhg][Pen]F[dW]KTCT-OH; disulfide 2-7)		5.60	4.87	
